Tested on: ACHN cell line
Assay: drug screen of the SelleckChem kinase inhibitor library with and without 5 uM SU-329, Cell-Titer Glo after 5 days
Format: cell-based
Details: kinase inhibitor at 200 nM with and without 5 uM SU329; ACHN cell line; 5 days; Cell-Titer Glo

Compound | log2fc
COc1ccc(CNC(=O)Nc2ncc([N+](=O)[O-])s2)cc1 [AR-A014418] | 0.1293
CC(C)(O)CC(=O)NCCn1ccc2ncnc(Nc3ccc(Oc4cccc(C(F)(F)F)c4)c(Cl)c3)c21 [TAK-285, reference compound] | 0.3876
NCC(=O)Nc1ccc(-n2nc(C(F)(F)F)cc2-c2ccc3c(ccc4ccccc43)c2)cc1 [OSU-03012 (AR-12)] | 0.7911
CN1CCC(COc2cnc(-c3cccc(Cn4nc(-c5cccc(C#N)c5)ccc4=O)c3)nc2)CC1 [Tepotinib (EMD 1214063)] | 0.04059
Cn1c(=O)c(F)c(Nc2ccc(I)cc2F)c2c(=O)n(C[C@@H](O)CO)cnc21 [TAK-733, reference compound] | 0.08618
CC(O)C(=O)O.CC(O)C(=O)O.CN1CCN(c2ccc3nc(-c4c(N)c5c(F)cccc5[nH]c4=O)[nH]c3c2)CC1 [Dovitinib (TKI-258) Dilactic Acid] | −0.3598
Oc1ccc2ccccc2c1SSc1c(O)ccc2ccccc12 [IPA-3] | 0.5168
O=C(Nc1cc(C(F)(F)F)cc(C(F)(F)F)c1)c1cc(Cl)ccc1O [IMD 0354] | 0.2086
O=C(NCc1ccccc1)c1csc(Nc2ccncn2)n1 [Thiazovivin] | −0.4963
NC(=O)c1ncn([C@@H]2O[C@H](CO)[C@@H](O)[C@H]2O)c1N [AICAR (Acadesine)] | 0.7164
CCc1cccc(CC)c1NC(=O)N1Cc2[nH]nc(NC(=O)c3ccc(N4CCN(C)CC4)cc3)c2C1 [PHA-680632] | −0.4048
COc1cc2c(Nc3ccc(NC(=O)c4ccccc4)cc3)ncnc2cc1OCCCN1CCOCC1 [ZM 447439] | 0.52
O=C(Nc1ccc(-c2ccnc(Nc3ccc(N4CCOCC4)cc3)n2)cc1)C1CCCN1 (stereo not shown) [XL019] | −0.1669
CN1CCN(CCOc2cc(OC3CCOCC3)c3c(Nc4c(Cl)ccc5c4OCO5)ncnc3c2)CC1 [Saracatinib (AZD0530)] | 0.4009

Target: T1, LKB1 (Homo sapiens, UniProt Q15831+Q7RTN6)
T1 sequence (Q15831 1-433): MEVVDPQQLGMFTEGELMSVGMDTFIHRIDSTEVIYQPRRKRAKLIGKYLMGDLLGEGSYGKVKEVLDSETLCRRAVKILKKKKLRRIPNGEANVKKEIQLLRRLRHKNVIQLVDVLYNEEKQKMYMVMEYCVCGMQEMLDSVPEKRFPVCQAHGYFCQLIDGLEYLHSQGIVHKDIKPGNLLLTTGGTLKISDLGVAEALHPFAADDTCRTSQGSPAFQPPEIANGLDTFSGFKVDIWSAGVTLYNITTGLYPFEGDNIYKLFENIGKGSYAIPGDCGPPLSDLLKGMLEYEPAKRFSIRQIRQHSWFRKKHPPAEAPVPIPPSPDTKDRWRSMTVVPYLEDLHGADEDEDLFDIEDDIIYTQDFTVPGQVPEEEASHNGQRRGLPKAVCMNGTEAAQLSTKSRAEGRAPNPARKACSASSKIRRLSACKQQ
T1 sequence (Q7RTN6 1-431): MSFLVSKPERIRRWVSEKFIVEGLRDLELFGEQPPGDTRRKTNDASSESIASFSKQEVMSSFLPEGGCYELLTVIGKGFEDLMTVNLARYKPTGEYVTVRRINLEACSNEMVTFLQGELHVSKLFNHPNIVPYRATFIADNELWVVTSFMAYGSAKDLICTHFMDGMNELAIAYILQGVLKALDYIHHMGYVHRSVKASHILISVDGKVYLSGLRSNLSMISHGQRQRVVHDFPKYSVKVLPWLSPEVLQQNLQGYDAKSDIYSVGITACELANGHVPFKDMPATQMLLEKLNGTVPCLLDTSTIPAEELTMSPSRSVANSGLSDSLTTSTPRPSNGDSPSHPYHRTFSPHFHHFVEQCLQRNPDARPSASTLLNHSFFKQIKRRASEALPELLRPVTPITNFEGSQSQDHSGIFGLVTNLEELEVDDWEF
T1 sequence (Q9Y376 1-341 partner): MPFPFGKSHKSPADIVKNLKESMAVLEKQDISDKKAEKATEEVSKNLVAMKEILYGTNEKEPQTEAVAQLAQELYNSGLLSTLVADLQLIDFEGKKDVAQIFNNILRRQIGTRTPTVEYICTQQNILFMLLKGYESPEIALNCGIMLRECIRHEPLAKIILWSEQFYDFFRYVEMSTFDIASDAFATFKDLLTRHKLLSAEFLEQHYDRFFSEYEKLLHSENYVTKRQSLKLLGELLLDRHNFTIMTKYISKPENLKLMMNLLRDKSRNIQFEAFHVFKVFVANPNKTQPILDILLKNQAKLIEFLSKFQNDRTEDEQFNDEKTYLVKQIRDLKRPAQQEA
Assay: in vitro LKB1 functional activity
Format: biochemical
Details: APA analogs

LKB1 % Act. Increase | Compound
C (C=199-1000%) | CC(=O)NS(=O)(=O)c1ccc(NC(=O)c2nc(-c3ccc(CO)cc3)cnc2N)cc1 [SU20668-0348, N-(4-(N-acetylsulfamoyl)phenyl)-3-amino-6-(4-(hydroxymethyl)phenyl)pyrazine-2-carboxamide]
C (C=199-1000%) | CCC(=O)NS(=O)(=O)c1ccc(NC(=O)c2nc(-c3ccc(C)cc3)cnc2N)cc1 [SU20668-0325, 3-amino-N-(4-(N-propionylsulfamoyl)phenyl)-6-p-tolylpyrazine-2-carboxamide]
D (D=<1000%) | CC(=O)NS(=O)(=O)c1ccc(NC(=O)c2nc(-c3ccc(C)cc3)cnc2N)cc1F [SU20668-0483]
C (C=199-1000%) | CC(=O)NS(=O)(=O)c1ccc(NC(=O)c2nc(-c3cnc(C)nc3)cnc2N)cc1 [SU20668-0369, N-(4-(N-acetylsulfamoyl)phenyl)-3-amino-6-(2-methylpyrimidin-5-yl)pyrazine-2-carboxamide]
D (D=<1000%) | Cc1ccc(-c2cnc(N)c(C(=O)Nc3ccc(C(=O)O)c(F)c3)n2)cc1 [SU20668-0299, 4-(3-amino-6-p-tolylpyrazine-2-carboxamido)-2-fluorobenzoic acid]
C (C=199-1000%) | CC(=O)NS(=O)(=O)c1ccc(NC(=O)c2nc(-c3cc[nH]n3)cnc2N)cc1 [SU20668-0352, N-(4-(N-acetylsulfamoyl)phenyl)-3-amino-6-(1H-pyrazol-3-yl)pyrazine-2-carboxamide]
D (D=<1000%) | CC(=O)NS(=O)(=O)c1ccc(NC(=O)c2nc(-c3cnc(N)nc3)cnc2N)cc1 [SU20668-0372, N-(4-(N-acetylsulfamoyl)phenyl)-3-amino-6-(2-aminopyrimidin-5-yl)pyrazine-2-carboxamide]
D (D=<1000%) | CC(=O)NS(=O)(=O)c1ccc(NC(=O)c2nc(-c3ccc(C4CCCN4)cc3)cnc2N)cc1 (stereo not shown) [SU20668-0340, N-(4-(N-acetylsulfamoyl)phenyl)-3-amino-6-(4-(pyrrolidin-2-yl)phenyl)pyrazine-2-carboxamide]
D (D=<1000%) | CC(=O)NS(=O)(=O)c1ccc(NC(=O)c2nc(-c3cccc(N)c3)cnc2N)cc1 [SU20668-0350, N-(4-(N-acetylsulfamoyl)phenyl)-3-amino-6-(3-aminophenyl)pyrazine-2-carboxamide]
C (C=199-1000%) | CNS(=O)(=O)c1ccc(NC(=O)c2nc(-c3ccc(C)cc3)cnc2N)cc1 [SU20668-0286, 3-amino-N-(4-(N-methylsulfamoyl)phenyl)-6-p-tolylpyrazine-2-carboxamide]
D (D=<1000%) | Cc1ccc(-c2cnc(N)c(C(=O)Nc3ccc(S(=O)(=O)CP(=O)(OC(C)C)OC(C)C)cc3)n2)cc1 [SU20668-0484, diisopropyl (4-(3-amino-6-p-tolylpyrazine-2-carboxamido)phenylsulfonyl)methylphosphonate]
C (C=199-1000%) | CC(=O)NS(=O)(=O)c1ccc(NC(=O)c2nc(-c3ccc(N4CCN(C)CC4)cc3)cnc2N)cc1 [SU20668-0347, N-(4-(N-acetylsulfamoyl)phenyl)-3-amino-6-(4-(4-methylpiperazin-1-yl)phenyl)pyrazine-2-carboxamide]
D (D=<1000%) | Cc1ccc(-c2cnc(N)c(C(=O)Nc3ccc(C(=O)NS(C)(=O)=O)cc3)n2)cc1 [SU20668-0478, 3-amino-N-(4-(methylsulfonylcarbamoyl)phenyl)-6-p-tolylpyrazine-2-carboxamide]
C (C=199-1000%) | Cc1ccc(-c2cnc(N)c(C(=O)Nc3ccc(CS(N)(=O)=O)cc3)n2)cc1 [SU20668-0331, 3-amino-N-(4-(sulfamoylmethyl)phenyl)-6-p-tolylpyrazine-2-carboxamide]
C (C=199-1000%) | CS(=O)(=O)c1ccc(NC(=O)c2nc(-c3ccc(S(C)(=O)=O)cc3)cnc2N)cc1 [SU20668-0317, methyl 3-amino-N,6-bis(4-(methylsulfonyl)phenyl)pyrazine-2-carboxamide]
C (C=199-1000%) | CC(=O)Nc1ccc(-c2cnc(N)c(C(=O)Nc3ccc(S(=O)(=O)NC(C)=O)cc3)n2)cc1 [SU20668-0346, 6-(4-acetamidophenyl)-N-(4-(N-acetylsulfamoyl)phenyl)-3-aminopyrazine-2-carboxamide]

Compound | LKB1 % Act. Increase
COP(=O)(OC)C(C)S(=O)(=O)c1ccc(NC(=O)c2nc(-c3ccc(C)cc3)cnc2N)cc1 (stereo not shown) [SU20668-0516, dimethyl 1-(4-(3-amino-6-p-tolylpyrazine-2-carboxamido)phenylsulfonyl)ethylphosphonate] | A (A=>4000%)
CCNP(=O)(CS(=O)(=O)c1ccc(NC(=O)c2nc(-c3ccc(C)cc3)cnc2N)cc1)OCC (stereo not shown) [SU20668-0480, ethyl P-(4-(3-amino-6-p-tolylpyrazine-2-carboxamido)phenylsulfonyl)methyl-N-ethylphosphonamidate] | D (D=<1000%)
COP(=O)(CS(=O)(=O)c1ccc(NC(=O)c2nc(-c3cc(F)ccc3Cl)cnc2N)cc1)OC [SU20668-0449, dimethyl (4-(3-amino-6-(2-chloro-5-fluorophenyl)pyrazine-2-carboxamido)phenylsulfonyl)methylphosphonate] | C (C=199-1000%)
CCOP(=O)(OCC)C(C)(C)S(=O)(=O)c1ccc(NC(=O)c2nc(-c3ccc(C)cc3)cnc2N)cc1 [SU20668-0486, diethyl 2-(4-(3-amino-6-p-tolylpyrazine-2-carboxamido)phenylsulfonyl)propan-2-ylphosphonate] | B (B=399-2000%)
CCOP(=O)(OCC)c1ccc(NC(=O)c2nc(-c3ccc(C)cc3)cnc2N)cc1 [SU20668-0211, diethyl 4-(3-amino-6-p-tolylpyrazine-2-carboxamido)phenylphosphonate] | D (D=<1000%)
CCOP(=O)(OCC)C(C)S(=O)(=O)c1ccc(NC(=O)c2nc(-c3ccc(C)cc3)cnc2N)cc1 (stereo not shown) [SU20668-0505, diethyl 1-(4-(3-amino-6-p-tolylpyrazine-2-carboxamido)phenylsulfonyl)ethylphosphonate] | A (A=>4000%)
COP(=O)(CS(=O)(=O)c1ccc(NC(=O)c2nc(-c3cc(F)ccc3C#N)cnc2N)cc1)OC [SU20668-0446, dimethyl (4-(3-amino-6-(2-cyano-5-fluorophenyl)pyrazine-2-carboxamido)phenylsulfonyl)methylphosphonate] | D (D=<1000%)
